Assay results reported in ChEMBL document CHEMBL1201862, “PubChem BioAssay data set” (2004).
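In this assay, cells in 96-well plates receive the compound at five concentrations for 48 hours. Endpoints are linearly interpolated between the surrounding concentrations. Here, GI50 denotes the concentration required for 50% inhibition of growth.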 The source made the active and inactive calls. Cut-off read from the data, not from the text of the source: active = GI50 up to about 1.1 µM and inactive = higher.

How the values were obtained:
Test in all cases: NCI-60 cell line screen, 48 h
IGROV-1 = system: IGROV-1
ACHN = system: ACHN
TK-10 = system: TK-10
T47D = system: T47D
A549 = system: A549
DU-145 = system: DU-145
NCI-H226 = system: NCI-H226
MOLT-4 = system: MOLT-4
SK-MEL-28 = system: SK-MEL-28
UO-31 = system: UO-31
HT-29 = system: HT-29
HCT-15 = system: HCT-15
NCI-H460 = system: NCI-H460
PC-3 = system: PC-3
UACC-62 = system: UACC-62
RPMI-8226 = system: RPMI-8226
MCF7 = system: MCF7
OVCAR-8 = system: OVCAR-8
M14 = system: M14

Row | Compound | GI50 (IGROV-1) | GI50 (ACHN) | GI50 (TK-10) | GI50 (T47D) | GI50 (A549) | GI50 (DU-145) | GI50 (NCI-H226) | GI50 (MOLT-4) | GI50 (SK-MEL-28) | GI50 (UO-31) | GI50 (HT-29) | GI50 (HCT-15) | GI50 (NCI-H460) | GI50 (PC-3) | GI50 (UACC-62) | GI50 (RPMI-8226) | GI50 (MCF7) | GI50 (OVCAR-8) | GI50 (M14)
1 | N#Cc1c(-c2ccc(F)cc2)c(-c2ccc(F)cc2)nn(CCO)c1=O | 0.155 µM (active) | 0.413 µM (active) | 3.36 µM (inactive) | 2.33 µM (inactive) | 0.25 µM (active) | 0.743 µM (active) | 1.77 µM (inactive) | 0.242 µM (active) | 17.8 µM (inactive) | 1.38 µM (inactive) | 0.143 µM (active) | 0.132 µM | 0.237 µM (active) | 0.416 µM (active) | 0.14 µM (active) | 0.213 µM (active) | 3.16 µM (inactive) |  | 
2 | C=CC(C)(C)N[C@@H](C(=O)N1CCC[C@H]1c1nc(-c2nc(C(=O)OCC=C(C)C)c(C)o2)c(C)o1)C(C)C | 28.8 µM (inactive) | 29.4 µM (inactive) | 24.3 µM (inactive) | 21.3 µM (inactive) | 29.9 µM (inactive) | 17.2 µM (inactive) | 17 µM (inactive) | 15.2 µM (inactive) | 18.5 µM (inactive) | 14.3 µM (inactive) | 19.1 µM (inactive) | 22 µM | 24 µM (inactive) | 25.5 µM (inactive) | 18 µM (inactive) | 18.7 µM (inactive) | 23.4 µM (inactive) | 23.4 µM (inactive) | 29 µM (inactive)
3 | O=C(O)C1CC(C2CCCCN2)CN2CCCCC12 (centres undefined) | > 100 µM (inactive) | > 100 µM (inactive) | > 100 µM (inactive) | > 100 µM (inactive) | > 100 µM (inactive) | > 100 µM (inactive) | > 100 µM (inactive) | > 100 µM (inactive) | > 100 µM (inactive) | > 100 µM (inactive) | > 100 µM (inactive) | > 100 µM | > 100 µM (inactive) | > 100 µM (inactive) | > 100 µM (inactive) | > 100 µM (inactive) | > 100 µM (inactive) | > 100 µM (inactive) | > 100 µM (inactive)
4 | CN(C)CCNc1ccc(CO)c2oc3ccc(O)cc3c(=O)c12 | 19.1 µM (inactive) | 7.45 µM (inactive) | 17.1 µM (inactive) | 13.3 µM (inactive) | 14.6 µM (inactive) | 20.1 µM (inactive) | 11.7 µM (inactive) | 2.47 µM (inactive) | 16.9 µM (inactive) | 10.5 µM (inactive) | 11.3 µM (inactive) | 14.4 µM | 4.24 µM (inactive) | 12.7 µM (inactive) | 11.5 µM (inactive) | 12.3 µM (inactive) | 4.83 µM (inactive) | 7.14 µM (inactive) | 15.7 µM (inactive)
5 | CC(C)C1=C2CCC3(C)C(CCC4C5C6OCC5(CCC6(C)C)CCC43C)C2(C)CC1 (centres undefined) | 13.1 µM (inactive) | 20 µM (inactive) | 16.7 µM (inactive) | 27 µM (inactive) | 17.3 µM (inactive) | 20.2 µM (inactive) | 33.7 µM (inactive) | 16.3 µM (inactive) | 17.8 µM (inactive) | 18.1 µM (inactive) | 17.7 µM (inactive) | 19.1 µM | 14 µM (inactive) | > 10 µM (inactive) | 17.7 µM (inactive) | 13.6 µM (inactive) | 23.4 µM (inactive) | 17.7 µM (inactive) | 17.4 µM (inactive)
6 | CC(=O)OC(C)c1cc2c(s1)C(=O)c1scc(C(C)OC(C)=O)c1C2=O (centres undefined) | 0.662 µM (active) | 0.238 µM (active) | 0.571 µM (active) | 0.661 µM (active) | 0.363 µM (active) | 0.178 µM (active) | 2.24 µM (inactive) | 0.324 µM (active) | 0.226 µM (active) | 0.204 µM (active) | 0.391 µM (active) | 0.195 µM | 0.167 µM (active) | 0.292 µM (active) | 0.212 µM (active) | 0.223 µM (active) | 0.251 µM (active) | 0.24 µM (active) | 0.117 µM (active)
7 | O=C(CSc1n[nH]c(=O)[nH]c1=O)NNC(=O)c1cccc2nc3ccccc3nc12 | > 100 µM (inactive) | > 100 µM (inactive) | > 100 µM (inactive) | > 100 µM (inactive) | 39.4 µM (inactive) | 36.5 µM (inactive) | 90.4 µM (inactive) | > 100 µM (inactive) | > 100 µM (inactive) |  | 49.4 µM (inactive) | 72.8 µM | 32.6 µM (inactive) | > 100 µM (inactive) | > 100 µM (inactive) | > 100 µM (inactive) | 38.2 µM (inactive) | > 100 µM (inactive) | 68.1 µM (inactive)
8 | CCOC(=O)c1[nH]cc(C)c1-c1c[nH]c2ccccc12 | 33.2 µM (inactive) | 23 µM (inactive) | 19.5 µM (inactive) | 36.3 µM (inactive) | 28.8 µM (inactive) | 45 µM (inactive) | 19.9 µM (inactive) | 4.11 µM (inactive) | 39.4 µM (inactive) | 19.3 µM (inactive) | 21.6 µM (inactive) | 8.81 µM | 12.1 µM (inactive) | 14 µM (inactive) | 14.4 µM (inactive) | 7.35 µM (inactive) | 22.3 µM (inactive) | 27.1 µM (inactive) | 24.9 µM (inactive)
9 | COC(=O)C1CCC(=O)N1CN(C(C)=O)c1ccccc1Cl (centres undefined) | > 100 µM (inactive) | > 100 µM (inactive) | > 100 µM (inactive) | > 100 µM (inactive) | > 100 µM (inactive) | > 100 µM (inactive) | > 100 µM (inactive) | > 100 µM (inactive) | > 100 µM (inactive) | > 100 µM (inactive) | > 100 µM (inactive) | > 100 µM | > 100 µM (inactive) | > 100 µM (inactive) | > 100 µM (inactive) | > 100 µM (inactive) | > 100 µM (inactive) | > 100 µM (inactive) | > 100 µM (inactive)
10 | COc1ccc(C2C(C(=O)c3ccccc3)=C(O)C(O)(CC(=O)c3ccccc3)N2c2ccc(OC)cc2)cc1 (centres undefined) | 21.9 µM (inactive) | 21 µM (inactive) | 16.3 µM (inactive) | 18.5 µM (inactive) | 22.4 µM (inactive) | 38.4 µM (inactive) | 16.1 µM (inactive) | 12.5 µM (inactive) | 28.6 µM (inactive) | 11.5 µM (inactive) | 19.3 µM (inactive) | 9.38 µM | 24.4 µM (inactive) | 11.6 µM (inactive) | 22.8 µM (inactive) | 5.04 µM (inactive) | 11.9 µM (inactive) | 10.4 µM (inactive) | 31.2 µM (inactive)
11 | C=C1C[C@@H](O)[C@@H](Br)C(C)(C)[C@@]12C=CC(O)(CBr)CC2 (some centres undefined) | 89.3 µM (inactive) | > 100 µM (inactive) | > 100 µM (inactive) | > 100 µM (inactive) | > 100 µM (inactive) | > 100 µM (inactive) | > 100 µM (inactive) | 21.4 µM (inactive) | > 100 µM (inactive) | > 100 µM (inactive) | 47.6 µM (inactive) | > 100 µM | 66.4 µM (inactive) | 1.48 µM (inactive) | 43.3 µM (inactive) | 24.9 µM (inactive) | 59.6 µM (inactive) | > 100 µM (inactive) | > 100 µM (inactive)
12 | O=c1/c(=C/c2ccc(-c3ccc(Cl)cc3Cl)o2)sc2n1[C@@H](c1ccc(Cl)cc1)C=C(c1cc(F)c(Cl)cc1Cl)N=2 | 33 µM (inactive) | > 100 µM (inactive) | 13.4 µM (inactive) | 19.2 µM (inactive) | > 100 µM (inactive) | 65.2 µM (inactive) | 22 µM (inactive) | 22.4 µM (inactive) | > 100 µM (inactive) | 41.5 µM (inactive) | 39.8 µM (inactive) | 35.6 µM | 60.3 µM (inactive) | > 100 µM (inactive) | 25 µM (inactive) | 31.1 µM (inactive) | 33.5 µM (inactive) | 45.7 µM (inactive) | > 100 µM (inactive)
13 | O=S(=O)(O)c1ccc2c(/N=N/c3ccc(S(=O)(=O)O)c4ccccc34)c(O)c(S(=O)(=O)O)cc2c1 | > 100 µM (inactive) | > 100 µM (inactive) | > 100 µM (inactive) | > 100 µM (inactive) |  | > 100 µM (inactive) | > 100 µM (inactive) | > 100 µM (inactive) | > 100 µM (inactive) | > 100 µM (inactive) | > 100 µM (inactive) | > 100 µM | > 100 µM (inactive) | > 100 µM (inactive) | > 100 µM (inactive) | > 100 µM (inactive) | > 100 µM (inactive) | > 100 µM (inactive) | > 100 µM (inactive)
14 | CC(=O)c1cccn1/C=C(\OC(=O)OC(C)(C)C)c1ccc[nH]1 | 40.6 µM (inactive) | > 100 µM (inactive) | > 100 µM (inactive) | 33 µM (inactive) | 60 µM (inactive) | 58.9 µM (inactive) | 33.2 µM (inactive) | 48.2 µM (inactive) | 96.6 µM (inactive) | 36.9 µM (inactive) |  | 55.5 µM | > 100 µM (inactive) | 49.1 µM (inactive) | 99.1 µM (inactive) | 59 µM (inactive) | 76.4 µM (inactive) | 99.5 µM (inactive) | 76.4 µM (inactive)
15 | CCN(CC)C(=S)SC [METHYLDIETHYL CARBAMODITHIOATE] | > 100 µM (inactive) | > 100 µM (inactive) | > 100 µM (inactive) | > 100 µM (inactive) | > 100 µM (inactive) | > 100 µM (inactive) | > 100 µM (inactive) | > 100 µM (inactive) | > 100 µM (inactive) |  | > 100 µM (inactive) | > 100 µM | > 100 µM (inactive) | 52.5 µM (inactive) | > 100 µM (inactive) | > 100 µM (inactive) | > 100 µM (inactive) | > 100 µM (inactive) | > 100 µM (inactive)
